Results from patent publication EP4674852A1, “PREPARATION METHOD FOR AND USE OF DIHYDROTHIENOPYRIMIDINE DERIVATIVE” (Innovstone Therapeutics Limited, priority 2023, dated 2024).

The molecules below were run against T1, PDE4D2 (Homo sapiens, UniProt Q08499) (assay: In vitro PDE4D2 enzyme inhibitory activity (AMP-Glo), reported as PDE4D2/PDE4B2 selectivity). Conditions: Ratio of IC50 value of PDE4D2 enzyme inhibition/IC50 value of PDE4B2 enzyme inhibition.
T1 construct: purchased BPS bioscience
T1 sequence (Q08499 303-809 limits assumed): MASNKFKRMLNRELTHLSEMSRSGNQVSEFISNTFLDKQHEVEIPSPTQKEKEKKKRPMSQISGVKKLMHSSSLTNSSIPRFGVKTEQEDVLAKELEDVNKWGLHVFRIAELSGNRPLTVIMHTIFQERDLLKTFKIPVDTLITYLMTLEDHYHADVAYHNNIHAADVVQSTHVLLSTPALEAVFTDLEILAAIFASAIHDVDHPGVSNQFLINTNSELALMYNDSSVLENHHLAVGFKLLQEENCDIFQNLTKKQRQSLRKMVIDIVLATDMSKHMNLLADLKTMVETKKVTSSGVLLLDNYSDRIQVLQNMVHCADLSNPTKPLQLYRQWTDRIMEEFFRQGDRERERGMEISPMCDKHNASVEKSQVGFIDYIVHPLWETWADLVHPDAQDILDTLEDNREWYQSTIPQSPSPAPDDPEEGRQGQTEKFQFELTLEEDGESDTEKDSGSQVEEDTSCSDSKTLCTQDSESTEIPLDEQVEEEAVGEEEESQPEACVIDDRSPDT
Format: biochemical
Procedure: Assay 1: In vitro evaluation of inhibitory activities of the compounds against PDE4B2 and PDE4D2 enzymes 1. Assay materials and instruments:
2. Assay procedure: • 2.1 Compound preparation and treatment • 2.1.1 Preparing stock solutions of compounds in DMSO: Compound powders were dissolved in 100% DMSO to produce 10 mM stock solutions, and oscillated in a shaker until the compounds were completely dissolved. • 2.1.2 Storing stock solutions of compounds in DMSO: Stock solutions of compounds in DMSO were stored in a desiccator at room temperature. • 2.1.3 Preparing working stock solutions: a) A solution of Roflumilast (reference compound) in DMSO was diluted to 60 µM, and then serially diluted 4-fold into 10 concentration gradients. B) The solutions of the test compounds in DMSO were diluted to 200 µM, and then serially diluted 3-fold. C) A 200X positive control (60 µM Roflumilast) and a 200X vehicle control (100% DMSO) were prepared. D) The assay plate was centrifuged at 1000 rpm for 1 minute. • 2.2 Compound testing • (1) 20 nL of compound dilution solutions were transferred with Echo 550 into each well of the assay plate. • (2) The assay plate was sealed and centrifuged at 1000 rpm for 1 minute. • (3) 2X PDE4B2/PDE4D2 was prepared in an ice-cold PDE assay buffer. • (4) 2 µL of 2X PDE4B2/PDE4D2 was added to each well of the assay plate prepared in step 2. • (5) The assay plate was sealed and allowed to equilibrate at room temperature for 10 minutes. • (6) 2X Cyclic-3',5'-AMP was prepared in a PDE assay buffer. • 7) 2µL of 2X Cyclic-3',S'-AMP (prepared in step 6) was added to each well of the assay plate (prepared in step 5) to initiate the reaction. The plate was incubated at room temperature for 60 minutes. • 8) 4µL AMP-Glo Reagent I was added, and the plate was incubated at room temperature for 60 minutes. • 9) 8µL AMP detection reagent was added. The plate was incubated at room temperature for 60 minutes. • 10) The RLU signal was read on an Envision 2105 plate reader.
For `COc1cc(C2(O)CN(c3nc4c(c(NC5(CO)CCC5)n3)[S+]([O-])CC4)C2)ccc1Cl` (racemic) [Compound 3, (R/S)-2-(3-(4-chloro-3-methoxyphenyl)-3-hydroxyazetidin-1-yl)-4-((1-(hydroxymethyl)cyclobutyl)amino)-6,7-dihydrothieno[3,2-d]pyrimidine 5-oxide], the PDE4D2/PDE4B2 selectivity was “B (2<B≤5)”. With `[O-][S+]1CCc2nc(N3CC=C(c4ccc(OC(F)F)cc4)C3)nc(NC3(CO)CCC3)c21` (racemic) [Compound 14, (R/S)-2-(3-(4-(difluoromethoxy)phenyl)-2,5-dihydro-1H-pyrrol-1-yl)-4-((1-(hydroxymethyl)cyclobutyl)amino)-6,7-dihydrothieno[3,2-d]pyrimidine 5-oxide] the PDE4D2/PDE4B2 selectivity was “B (2<B≤5)”. In the case of `COC1(c2ccc(Cl)c(F)c2)CN(c2nc3c(c(NC4(CO)CCC4)n2)[S+]([O-])CC3)C1` (racemic) [Compound 82, (R/S)-2-(3-(4-chloro-3-fluorophenyl)-3-methoxyazetidin-1-yl)-4-((1-(hydroxymethyl)cyclobutyl)amino)-6,7-dihydrothieno[3,2-d]pyrimidine 5-oxide], the PDE4D2/PDE4B2 selectivity is reported as “A (5<A≤10)”. For `COC1(c2ccc(Cl)cc2)CN(c2nc3c(c(NC4(CO)CCC4)n2)[S+]([O-])CC3)C1` (racemic) [Compound 83, (R/S)-2-(3-(4-chlorophenyl)-3-methoxyazetidin-1-yl)-4-((1-(hydroxymethyl)cyclobutyl)amino)-6,7-dihydrothieno[3,2-d]pyrimidine 5-oxide], the PDE4D2/PDE4B2 selectivity was “A (5<A≤10)”. `COC1(c2ccc(Cl)c(F)c2)CN(c2nc3c(c(NC4CCOCC4)n2)[S+]([O-])CC3)C1` (racemic) [Compound 86, (R/S)-2-(3-(4-chloro-3-fluorophenyl)-3-methoxyazetidin-1-yl)-4-((tetrahydro-2H-pyran-4-yl)amino)-6,7-dihydrothieno[3,2-d]pyrimidine 5-oxide] was tested, and the PDE4D2/PDE4B2 selectivity was “B (2<B≤5)”. For `[O-][S+]1CCc2nc(N3Cc4ccc(OC(F)F)cc4C3)nc(NC3(CO)CCC3)c21` (racemic) [Compound 87, (R/S)-2-(5-(difluoromethoxy)isoindolin-2-yl)-4-((1-(hydroxymethyl)cyclobutyl)amino)-6,7-dihydrothieno[3,2-d]pyrimidine 5-oxide], the PDE4D2/PDE4B2 selectivity was “B (2<B≤5)”. In the case of `COC1(c2ccc(Cl)cc2)CN(c2nc3c(c(NC4CCOCC4)n2)[S+]([O-])CC3)C1` (racemic) [Compound 88, (R/S)-2-(3-(4-chlorophenyl)-3-methoxyazetidin-1-yl)-4-((tetrahydro-2H-pyran-4-yl)amino)-6,7-dihydrothieno[3,2-d]pyrimidine 5-oxide], the PDE4D2/PDE4B2 selectivity is reported as “B (2<B≤5)”. For `[2H]C([2H])([2H])OC1(c2ccc(Cl)cc2)CN(c2nc3c(c(NC4(CO)CCC4)n2)[S+]([O-])CC3)C1` (racemic) [Compound 92, (R/S)-2-(3-(4-chlorophenyl)-3-(methoxy-d3)azetidin-1-yl)-4-((1-(hydroxymethyl)cyclobutyl)amino)-6,7-dihydrothieno[3,2-d]pyrimidine 5-oxide], the PDE4D2/PDE4B2 selectivity was “A (5<A≤10)”. In the case of `[2H]C([2H])([2H])OC1(c2ccc(Cl)cc2)CN(c2nc3c(c(NC4CCOCC4)n2)[S+]([O-])CC3)C1` (racemic) [Compound 94, (R/S)-2-(3-(4-chlorophenyl)-3-(methoxy-d3)azetidin-1-yl)-4-((tetrahydro-2H-pyran-4-yl)amino)-6,7-dihydrothieno[3,2-d]pyrimidine 5-oxide], the PDE4D2/PDE4B2 selectivity is reported as “B (2<B≤5)”. With `COC1(c2ccc(OC(F)F)cc2)CN(c2nc3c(c(NC4(CO)CCC4)n2)[S+]([O-])CC3)C1` (racemic) [Compound 105, (R/S)-2-(3-(4-(difluoromethoxy)phenyl)-3-methoxyazetidin-1-yl)-4-((1-(hydroxymethyl)cyclobutyl)amino)-6,7-dihydrothieno[3,2-d]pyrimidine 5-oxide] the PDE4D2/PDE4B2 selectivity was “B (2<B≤5)”. With `COC1(c2ccc(OCC3CC3)cc2)CN(c2nc3c(c(NC4(CO)CCC4)n2)[S+]([O-])CC3)C1` (racemic) [Compound 106, (R/S)-2-(3-(4-(cyclopropylmethoxy)phenyl)-3-methoxyazetidin-1-yl)-4-((1-(hydroxymethyl)cyclobutyl)amino)-6,7-dihydrothieno[3,2-d]pyrimidine 5-oxide] the PDE4D2/PDE4B2 selectivity was “B (2<B≤5)”. In the case of `COC1(c2ccc(N3CCCC3)cc2)CN(c2nc3c(c(NC4(CO)CCC4)n2)[S+]([O-])CC3)C1` (racemic) [Compound 107, (R/S)-4-((1-(hydroxymethyl)cyclobutyl)amino)-2-(3-methoxy-3-(4-(pyrrolidin-1-yl)phenyl)azetidin-1-yl)-6,7-dihydrothieno[3,2-d]pyrimidine 5-oxide], the PDE4D2/PDE4B2 selectivity is reported as “B (2<B≤5)”. For `COc1ccc(C2(OC)CN(c3nc4c(c(NC5CCOCC5)n3)[S+]([O-])CC4)C2)cc1` (racemic) [Compound 108, (R/S)-2-(3-methoxy-3-(4-methoxyphenyl)azetidin-1-yl)-4-((tetrahydro-2H-pyran-4-yl)amino)-6,7-dihydrothieno[3,2-d]pyrimidine 5-oxide], the PDE4D2/PDE4B2 selectivity was “B (2<B≤5)”. For `[O-][S+]1CCc2nc(N3CCC(c4ncc(Cl)cn4)CC3)nc(NC3(CO)CCC3)c21` (stereo not shown) [Control 1, reference compound], the PDE4D2/PDE4B2 selectivity was “C (C≤2)”.

What follows are molecules tested on LPS-induced TNF-α secretion from human PBMC (assay: Inhibition of LPS-induced TNF-α secretion from human PBMC). Conditions: hPBMC, LPS 10 ng/mL, 24 hours.
Format: cell-based
Procedure: Assay 3: Test of the inhibition of compounds on LPS-induced TNF-α secretion from human PBMC
Frozen hPBMC cell stock solution was rapidly thawed in a 37°C water bath. The cells were transferred to complete medium (RPMI 1640+10% FBS+1% P/S). The suspension was centrifuged at 1000 rpm for 5 minutes. The supernatant was discarded, and the cells were resuspended in 1 mL complete medium (RPMI 1640 + 10% FBS + 1% P/S). After gentle pipetting to mix, the cells were counted using trypan blue staining. Cells were seeded into a 96-well cell culture plate at 5×10^4 cells/well, with 100 µL/well of complete medium. Test compounds were prepared at 4×the final concentration and added to the cells at 50 µL/well, followed by a 30-minute pre-incubation. Control wells without compound were simultaneously set up. LPS was prepared as a 4×solution to achieve a final stimulation concentration of 10 ng/mL and added to the cells at 50µL/well. Control wells without LPS were simultaneously set up. The incubation of cells was continued and 10% of supernatant was collected for detection after 24 hours. The collected supernatant was detected according to the Human TNF-α kit of R&D Company (VAL105G). The inhibitory activities of the compounds of the present invention on LPS-induced TNF-α secretion from human PBMC were determined according to the above method. […]
`COC1(c2ccc(Cl)cc2)CN(c2nc3c(c(NC4(CO)CCC4)n2)[S+]([O-])CC3)C1` (racemic) [Compound 83, (R/S)-2-(3-(4-chlorophenyl)-3-methoxyazetidin-1-yl)-4-((1-(hydroxymethyl)cyclobutyl)amino)-6,7-dihydrothieno[3,2-d]pyrimidine 5-oxide] was tested, and the IC50 was 1.35 nM. Work on `[O-][S+]1CCc2nc(N3CCC(c4ncc(Cl)cn4)CC3)nc(NC3(CO)CCC3)c21` (stereo not shown) [Control 1, reference compound] yielded an IC50 of 146 nM.
